Test results taken from publication PMC7016952, “Characterization of the Menin-MLL Interaction as Therapeutic Cancer Target” (Cancers, 2020).
Values belong to the molecule of their own block, whether it stands above or below them. Residues, ends and D or L forms follow the SMILES beside them. *: point of attachment. Cbz = O=C(OCc1ccccc1)*

Experiments:
MCF7 xenograft = MCF7 xenograft efficacy; format: in vivo, mice
Experimental: (§1) Tumor cells were injected subcutaneously into the flanks of 6- to 9-week old animals. Efficacy studies in xenograft models were performed at Bayer or EPO GmbH (Berlin-Buch, Germany) using NMRI nu/nu, SCID, BALB/c Nude female mice or SCID male mice (VCaP tumors). All animal studies were conducted in accordance with the animal welfare laws and were approved by the State Office for Health and Social Affairs Berlin (LAGeSo). Experiments were run under the animal license B3600a0007. Compound treatment started at a predefined tumor size or burden or at a predefined day after cell inoculation. BAY-155 was administered orally (p.o.) at various doses and regorafenib, tamoxifen and enzalutamide (resuspended in PEG400/H2O 6/4 or PEG400/EtOH 9/1) were used as control treatment for RKO, MCF7 and VCaP xenografts, respectively. Subcutaneous tumor volumes were determined by caliper measurement.

[1] = test system: ER signaling pathway genes in MCF7 tumor samples; experiment: Ex vivo gene expression in MCF7 xenografts; parameters: species or system mice; conditions: 27 days of treatment
Experimental: (§2) Total RNA was isolated using RNeasy-Plus Mini kit (Qiagen, Hilden, Germany). RNA (1 μg) was reverse transcribed using SuperScript III First-Strand Synthesis SuperMix (Life Technologies) and the generated cDNA was analyzed with commercial primers (Supplementary Materials Table S1) by qRT-PCR using TaqMan Fast Advanced Master Mix (Life Technologies). For the RNA-seq study, ZR-75-1, BT474, PANC-1, MiaPaCa-2, 22RV1, JMSU-1, DLD-1, SW1463, LoVo and G401 cells were treated with 5 µM BAY-155 or DMSO for 48 h prior to RNA extraction. After 48 h of 5 µM BAY-155 or DMSO treatment, MCF7, VCaP and LNCaP cells were stimulated for further 12 h with 0.1 nM of E2 (ß-Estradiol) or 1 nM R1881, respectively. MCF7, VCaP and LNCaP cells were cultured in starvation medium (containing 5 µM BAY-155 or DMSO) 6 h before stimulation. RNA was isolated using RNeasy-Plus Mini kit (Qiagen). The purified RNA was used for library preparation (Illumina, San Diego, CA, USA. TruSeq Stranded mRNA Kit) and the generated libraries were sequenced (Illumina, HiSeq2500 HTv4, SR, dual-indexing, 50 cycles).
(§3) Tumors were harvested, dissociated and total RNA was extracted using the TissueLyser (Qiagen, Hilden, Germany) together with RNeasy-Plus Mini kit according to the manufacturer protocol.

RKO xenograft = RKO xenograft efficacy; format: in vivo, mice
Experimental: as §1

[2] = test system: T1, menin protein levels in VCaP cells; experiment: Western blot of menin protein level; format: cell-based, human
T1 construct: endogenous in cells; host or cells: VCaP

VCaP xenograft = VCaP xenograft efficacy; format: in vivo, mice
Experimental: as §1

[3] = test system: AR signaling pathway genes in VCaP tumor samples; experiment: Ex vivo gene expression in VCaP xenografts; parameters: species or system mice; conditions: 52 days of treatment
Experimental: as §2, §3

CYP 3A4 = CYP 3A4 (Homo sapiens, UniProt P08684); experiment: CYP inhibition 3A4; format: in vitro ADME
Sequence of CYP 3A4 (P08684 whole entry): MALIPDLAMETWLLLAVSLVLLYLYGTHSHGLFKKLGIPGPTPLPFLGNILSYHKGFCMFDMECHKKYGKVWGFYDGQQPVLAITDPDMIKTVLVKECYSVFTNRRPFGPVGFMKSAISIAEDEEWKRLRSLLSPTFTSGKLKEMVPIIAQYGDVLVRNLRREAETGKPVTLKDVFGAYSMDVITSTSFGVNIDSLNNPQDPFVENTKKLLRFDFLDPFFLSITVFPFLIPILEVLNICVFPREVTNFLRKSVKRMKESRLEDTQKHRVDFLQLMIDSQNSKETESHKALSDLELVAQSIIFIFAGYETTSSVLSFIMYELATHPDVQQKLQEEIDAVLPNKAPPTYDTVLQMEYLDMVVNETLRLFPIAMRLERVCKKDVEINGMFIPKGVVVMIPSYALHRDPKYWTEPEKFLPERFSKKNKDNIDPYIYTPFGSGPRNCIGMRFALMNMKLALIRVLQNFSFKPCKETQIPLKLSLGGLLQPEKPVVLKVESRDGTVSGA

MOLM-13 cells = experiment: Proliferation inhibition, MOLM-13; format: cell-based, human; conditions: Homo sapiens, proliferation, read-out: Potency IC50 MOLM-13
CYP 2D6 = CYP 2D6 (Homo sapiens, UniProt P10635); experiment: CYP inhibition 2D6; format: in vitro ADME
Sequence of CYP 2D6 (P10635 whole entry): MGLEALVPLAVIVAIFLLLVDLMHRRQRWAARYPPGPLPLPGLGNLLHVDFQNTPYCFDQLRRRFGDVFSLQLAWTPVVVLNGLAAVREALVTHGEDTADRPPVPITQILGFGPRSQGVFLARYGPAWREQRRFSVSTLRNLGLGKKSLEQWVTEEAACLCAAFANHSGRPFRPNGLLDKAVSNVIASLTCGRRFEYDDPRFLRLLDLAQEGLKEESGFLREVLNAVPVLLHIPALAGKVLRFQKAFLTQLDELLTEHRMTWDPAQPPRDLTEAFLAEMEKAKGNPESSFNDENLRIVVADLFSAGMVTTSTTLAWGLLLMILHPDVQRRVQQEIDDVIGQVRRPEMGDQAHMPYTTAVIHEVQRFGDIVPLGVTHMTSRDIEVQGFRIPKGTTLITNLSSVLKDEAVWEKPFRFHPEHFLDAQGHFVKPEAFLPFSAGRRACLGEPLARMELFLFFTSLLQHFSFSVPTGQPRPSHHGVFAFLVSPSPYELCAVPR

menin = biological target: T2, menin (Homo sapiens, UniProt O00255); experiment: Isothermal Titration Calorimetry (ITC) on purified menin; format: binding; conditions: ITC, 25 °C, menin 1-615; read-out: KD
T2 construct: purified menin (1–615 with GST-tag cleaved as described above); GST (TEV cleavable) (N, cleaved yes); made in house; host or cells: E. coli BL21 (DE3)
T2 sequence (O00255 1-615 isoform O00255-1): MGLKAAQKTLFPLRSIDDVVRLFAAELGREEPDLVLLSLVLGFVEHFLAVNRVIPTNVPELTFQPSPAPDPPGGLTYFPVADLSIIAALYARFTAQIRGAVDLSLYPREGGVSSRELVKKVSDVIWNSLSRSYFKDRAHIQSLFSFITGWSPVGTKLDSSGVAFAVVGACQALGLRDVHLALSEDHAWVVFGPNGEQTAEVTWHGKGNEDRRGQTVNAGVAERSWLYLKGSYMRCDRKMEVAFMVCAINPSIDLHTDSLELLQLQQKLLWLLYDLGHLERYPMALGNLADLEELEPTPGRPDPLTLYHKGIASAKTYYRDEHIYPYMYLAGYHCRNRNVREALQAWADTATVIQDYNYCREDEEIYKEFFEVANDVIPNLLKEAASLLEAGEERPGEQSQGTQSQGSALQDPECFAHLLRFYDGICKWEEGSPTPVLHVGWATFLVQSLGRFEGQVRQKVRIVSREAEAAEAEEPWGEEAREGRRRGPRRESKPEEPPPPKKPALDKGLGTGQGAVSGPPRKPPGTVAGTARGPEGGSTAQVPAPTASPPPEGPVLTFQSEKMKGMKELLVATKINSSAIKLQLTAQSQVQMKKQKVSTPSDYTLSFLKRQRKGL
Experimental: Cloning of expression vectors for recombinant menin was performed as follows. […] Proteins were expressed in E. coli BL21 (DE3) following 0.1 mM IPTG induction at 17 °C overnight. For purification, cell pellets were resuspended in buffer A (50 mM Tris pH 7.5, 300 mM NaCl, 2 mM DTT). Cells were lysed using a high pressure Microfluidics apparatus and the cell debris pelleted by centrifugation. The supernatant was applied to a GST column (GE Healthcare, Chicago, IL, USA), washed with two column volumes of washing buffer A and eluted with Buffer B (Buffer A plus 15 mM reduced glutathione). If necessary, the purification tag was cleaved off with the addition of His-TEV protease (1:20 mass ratio) during overnight incubation in buffer A. His-TEV was removed by IMAC column rebinding and final protein purification of either GST-cleaved or uncleaved menin-1 was performed by size exclusion chromatography using a HiLoad 16/60 Superdex 200 (GE Healthcare) column in buffer C (Buffer A but 50 mM NACl).
The compound was dissolved in 100% DMSO to a concentration of 10 mM and subsequently diluted to a final concentration of 5 µM in ITC Buffer. Isothermal Titration Calorimetry (ITC) was performed at 25 °C in a Microcal PEAQ-ITC (Malvern Panalytical). […] Reference Power was set to 6 μcal/s. Data were collected on high feedback mode. Analysis was performed with a single binding site model in the Microcal PEAQ-ITC Analysis Software (Malvern Panalytical).

CYP 2C8 = CYP 2C8 (Homo sapiens, UniProt P10632); experiment: CYP inhibition 2C8; format: in vitro ADME
Sequence of CYP 2C8 (P10632 whole entry): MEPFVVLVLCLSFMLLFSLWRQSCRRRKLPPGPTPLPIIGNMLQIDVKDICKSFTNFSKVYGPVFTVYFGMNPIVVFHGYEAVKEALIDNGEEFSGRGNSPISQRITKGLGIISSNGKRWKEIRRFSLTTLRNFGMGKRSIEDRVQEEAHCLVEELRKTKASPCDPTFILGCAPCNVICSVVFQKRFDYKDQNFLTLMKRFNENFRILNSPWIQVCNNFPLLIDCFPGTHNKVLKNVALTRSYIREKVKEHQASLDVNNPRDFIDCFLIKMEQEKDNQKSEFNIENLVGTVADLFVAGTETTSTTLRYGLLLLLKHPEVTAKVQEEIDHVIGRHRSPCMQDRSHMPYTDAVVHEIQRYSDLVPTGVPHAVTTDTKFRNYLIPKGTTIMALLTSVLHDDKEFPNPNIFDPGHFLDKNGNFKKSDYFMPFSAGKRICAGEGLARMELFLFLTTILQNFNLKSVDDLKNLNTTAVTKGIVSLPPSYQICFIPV

[4] = Metabolic stability in rat hepatocytes; format: in vitro ADME; conditions: in vitro maximal bioavailability
Experimental: Liver cells were distributed at a density of 1.0 × 10^6 cells/mL and treated with 1 µM BAY-155 or MI-503. During incubation, the hepatocyte suspensions were continuously shaken, and aliquots were taken at 2, 8, 16, 30, 45, and 90 min, fixed with cold methanol and stored at −20 °C. Next, samples were centrifuged and the supernatant was analyzed with an LC-MS/MS. The compound half-life was determined from the concentration–time plot. The intrinsic clearances were calculated from the half-life, together with additional parameters (liver blood flow, quantity of liver cells in vivo and in vitro).

MV4;11 cells = experiment: Proliferation inhibition, MV4;11; format: cell-based, human; conditions: Homo sapiens, MV4-11; proliferation; read-out: Potency IC50 MV4;11
menin-MLL interaction = biological target: T3, menin-MLL interaction (Homo sapiens, UniProt O00255); experiment: TR-FRET menin-MLL binding assay; conditions: read-out: Potency IC50 Menin-MLL binding
T3 construct: recombinant full length, His-tagged menin
T3 sequence (O00255 1-610): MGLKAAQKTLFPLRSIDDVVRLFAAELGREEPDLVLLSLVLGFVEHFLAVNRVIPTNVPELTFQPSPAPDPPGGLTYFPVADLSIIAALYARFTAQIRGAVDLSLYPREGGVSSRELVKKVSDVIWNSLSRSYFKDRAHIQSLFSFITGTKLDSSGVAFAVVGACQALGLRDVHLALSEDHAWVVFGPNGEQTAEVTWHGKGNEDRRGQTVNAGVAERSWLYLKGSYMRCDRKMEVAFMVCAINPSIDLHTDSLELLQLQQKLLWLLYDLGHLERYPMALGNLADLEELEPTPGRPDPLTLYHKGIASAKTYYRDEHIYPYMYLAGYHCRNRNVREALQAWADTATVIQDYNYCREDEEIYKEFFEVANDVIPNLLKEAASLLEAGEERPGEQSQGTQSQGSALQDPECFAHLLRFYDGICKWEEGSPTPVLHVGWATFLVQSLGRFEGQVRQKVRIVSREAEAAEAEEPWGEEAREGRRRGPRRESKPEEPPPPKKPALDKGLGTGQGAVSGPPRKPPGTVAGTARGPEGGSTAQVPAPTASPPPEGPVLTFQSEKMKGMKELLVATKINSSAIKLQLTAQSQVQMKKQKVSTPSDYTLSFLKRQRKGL

CYP 1A2 = CYP 1A2 (Homo sapiens, UniProt P05177); experiment: CYP inhibition 1A2; format: in vitro ADME
Sequence of CYP 1A2 (P05177 whole entry): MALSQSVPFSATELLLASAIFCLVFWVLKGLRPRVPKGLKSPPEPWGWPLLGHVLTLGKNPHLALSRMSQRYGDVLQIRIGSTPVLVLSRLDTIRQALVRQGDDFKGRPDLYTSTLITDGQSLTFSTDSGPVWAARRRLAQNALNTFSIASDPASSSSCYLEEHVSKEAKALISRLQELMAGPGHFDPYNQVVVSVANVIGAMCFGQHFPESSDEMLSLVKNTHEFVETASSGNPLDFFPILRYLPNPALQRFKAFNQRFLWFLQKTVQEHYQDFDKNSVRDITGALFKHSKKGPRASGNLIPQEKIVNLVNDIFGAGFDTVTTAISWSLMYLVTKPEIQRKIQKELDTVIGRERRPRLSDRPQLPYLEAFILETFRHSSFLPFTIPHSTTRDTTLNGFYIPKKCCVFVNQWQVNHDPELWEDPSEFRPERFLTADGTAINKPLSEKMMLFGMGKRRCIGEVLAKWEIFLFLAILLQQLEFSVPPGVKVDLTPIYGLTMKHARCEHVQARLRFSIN

CYP 2C9 = CYP 2C9 (Homo sapiens, UniProt P11712); experiment: CYP inhibition 2C9; format: in vitro ADME
Sequence of CYP 2C9 (P11712 whole entry): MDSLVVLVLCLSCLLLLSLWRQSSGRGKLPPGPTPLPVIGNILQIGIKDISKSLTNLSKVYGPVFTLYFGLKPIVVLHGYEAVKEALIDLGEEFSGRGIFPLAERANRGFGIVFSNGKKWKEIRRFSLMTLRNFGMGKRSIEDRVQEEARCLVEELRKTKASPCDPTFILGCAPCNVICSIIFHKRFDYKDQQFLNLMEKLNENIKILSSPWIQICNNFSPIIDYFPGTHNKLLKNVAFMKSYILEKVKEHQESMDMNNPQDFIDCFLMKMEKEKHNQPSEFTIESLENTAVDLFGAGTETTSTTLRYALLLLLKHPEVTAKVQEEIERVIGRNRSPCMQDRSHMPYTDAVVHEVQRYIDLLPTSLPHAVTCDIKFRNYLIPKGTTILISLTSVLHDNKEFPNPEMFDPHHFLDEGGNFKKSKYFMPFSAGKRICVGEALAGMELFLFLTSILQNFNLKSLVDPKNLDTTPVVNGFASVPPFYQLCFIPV

[5] = test system: safety pharmacology relevant proteins (GPCRs, ion channels and transporters); experiment: Selectivity panel of safety pharmacology assays; conditions: 10 µM
Jurkat cells = experiment: Proliferation inhibition, Jurkat; format: cell-based; conditions: Homo sapiens, read-out: Potency IC50 Jurkat
HL-60 cells = experiment: Proliferation inhibition, HL-60; format: cell-based; conditions: Homo sapiens, read-out: Potency IC50 HL-60

SMILES: CC/C(=C(\c1ccccc1)c1ccc(OCCN(C)C)cc1)c1ccccc1 [tamoxifen, reference compound]
tumor volume and tumor weight (MCF7 xenograft): reduced tumor volume and tumor weight
EGR3, GREB1 and PGR1 expression ex vivo [1]: significant reduction

SMILES: CNC(=O)c1cc(Oc2ccc(NC(=O)Nc3ccc(Cl)c(C(F)(F)F)c3)c(F)c2)ccn1 [regorafenib, reference compound]
tumor volume and weight (anti-growth effects) (RKO xenograft): pronounced reduction of tumor volume and weight

SMILES: CC(C)C[C@@H](C=O)NC(=O)[C@H](CC(C)C)NC(=O)[C@H](CC(C)C)NC(=O)OCc1ccccc1 [MG-132] (Cbz-Leu-Leu-Leu-aldehyde)
rescue of menin protein level under BAY-155 treatment ([2]; MG-132 10 µM with BAY-155 10 µM, 16 h): fully rescued the menin protein level

SMILES: CNC(=O)c1ccc(N2C(=S)N(c3ccc(C#N)c(C(F)(F)F)c3)C(=O)C2(C)C)cc1F [enzalutamide, reference compound]
tumor volume and tumor weight (VCaP xenograft): reduced tumor volume and tumor weight
FKBP5 and TMPRSS2 expression ex vivo [3]: significant reduction

IC50 (CYP 3A4): 1000 nM
in vivo F Rat (In vivo DMPK in rat; rat in vivo bioavailability): 2.7%
clearance (In vivo DMPK in rat; whole blood, rat in vivo, read-out: in vivo CL blood Rat (converted)): 25 mL/min/kg
IC50 (MOLM-13 cells): 893 nM
IC50 (CYP 2D6): 2400 nM
Kd (menin): 94 nM
IC50 (CYP 2C8): 4000 nM
hepatocytes Fmax Rat [4]: 48%
IC50 (MV4;11 cells): 251 nM
IC50 (menin-MLL interaction): 80 nM
IC50 (CYP 1A2): > 10000 nM
IC50 (CYP 2C9): 800 nM
IC50 (Jurkat cells): 568 nM
IC50 (HL-60 cells): 672 nM
SMILES: Cc1c(CN2CCC(Nc3ncnc4sc(CC(F)(F)F)cc34)CC2)ccc2c1cc(C#N)n2Cc1cn[nH]c1 [MI-503]
menin protein levels ([2]; Western blot): reduce menin protein levels in a time- and concentration-dependent manner
number of tested proteins inhibited by ≥ 50% [5]: 28
